Test results taken from patent US20210087525A1, “COST EFFECTIVE CULTURE MEDIA AND PROTOCOL FOR HUMAN INDUCED PLURIPOTENT STEM CELLS” (NORTHWESTERN UNIVERSITY, priority 2019, published 2021).

How the values were obtained:
[1] = system: hiPSC line 19-3; assay: short-term 6-day hiPSC growth assay (media variable optimization); type: cell-based, human; conditions: for necessity of component for hiPSC growth: short-term assay, FIG. 2; for optimal / sufficient concentration for growth: one passage growth assay, FIG. 2E-F; for concentrations showing a similar effect on growth rate: FGF2-G3 compared with FGF2-K128N
Source text: FIG. 2A-F. Optimization of Basic Human Pluripotent Stem Cell Medium Constituents with a Short-Term Growth Assay. Results are normalized to initial medium component concentrations shown with a dark gray bar, optimizations were completed using short-term 6-day growth assay. […] (A) Comparison of the effect of recombinant human IGF1 LR3 (n=3) and recombinant human insulin (n=18-22) concentrations on relative growth. (B) L-ascorbic acid 2-phosphate (n=19-27). (C) Transferrin (n=2-20). (D) Sodium selenite (n=3-20). (E) FGF2-K128N (n=3-12). (F) TGFb1 (n=20-25). n=full experimental replicates, unpaired Student's T-test, *P≤0.05, **P≤0.01, ***P≤0.005, ****P≤0.0001, n.s.=not significant.
FIG. 3A-H. Optimization of Additional Human Pluripotent Stem Cell Medium Constituents in a Short-Term Assay. E8 medium component concentrations are shown with a dark gray bar, optimizations were completed using a simple 6-day growth assay. […] (A) Comparison of the suitability of recombinant transferrin (10 μg ml−1) to support clonal growth with and without ROCK1/2 inhibition using Y27632 (10 μM) during the first 24 h after passage (n=3). (B) Comparison of two common ROCK1/2 inhibitors only during first 24 h after passage on relative growth (n>5). (C) Comparison of the effect of the addition of non-essential amino acids (NEAA) and chemically defined lipids (n=5) on relative growth. (D) Fatty acid-free albumin (n=4). (E) Sodium bicarbonate (n=5). (F) pH (n=9). (G) Osmolarity (n=8). (H) FGF2-G3 (n=3). n=full experimental replicates, unpaired Student's T-test, *P≤0.05, **P≤0.01, ***P≤0.005, ****P≤0.0001, n.s.=not significant.
The hiPSC line 19-3 was dissociated with TrypLE (Gibco™, 12604-013) for 3 min at 37° C. and cells were resuspended in DMEM/F12, transferred to a 15 ml conical tube (Falcon) and centrifuged at 200×g for 3 min (Sorvall ST40). The pellet was resuspended in DMEM/F12, diluted to 1×10^5 cells per ml and 10,000 cells were plated per well in Matrigel® (1:800)-coated 12-well plates (Greiner) in the medium to be tested along with 2 μM thiazovivin for the first 24 h. Media were changed daily and cells were grown for 6 days. This lower than normal seeding density was used to allow the discovery of factors only detectable under more extreme conditions and therefore provide data on the robustness to the formulation.

[2] = system: hiPSC; assay: long-term 5-passage, 4-day hiPSC growth assay; type: cell-based, human; conditions: for confirmed concentration in long-term assay: FIG. 5A-C; for concentration confirmed / usable / required in long-term assay: FIG. 5D-L; for necessity of component for hiPSC culture: long-term assay, removal of dispensable components reduces growth rate
Source text: FIG. 5A-P. Optimization of B8 Medium Constituents with a Long-Term Growth Assay. Results are normalized to initial medium component concentrations shown with a dark gray bar, optimizations were completed using long-term 5-passage, 4-day growth assay. Comparison of the effect of (A) recombinant human insulin concentration on relative growth (n=10). (B) L-ascorbic acid 2-phosphate (n=10). (C) Recombinant transferrin (n=10). (D) Sodium selenite (n=5). (E) In-house made FGF2-G3 (n=6). (G) NODAL (n=5). (H) Activin A (n=5). (I) In-house made TGFb3 after 9 passages compared to commercial TGFb1 (n=9). (J) Addition of NRG1 to 40 ng ml−1 FGF2-G3 (n>5). (K) Final B8 formula. n=full experimental replicates, unpaired Student's T-test, *P≤0.05, **P≤0.01, ***P≤0.005, ****P≤0.0001, n.s.=not significant.
Our initial short-term experiments provided preliminary optimizations, yet we were aware from previous experiments that some variables, such as the elimination of TGFβ1, had minimal effects short-term and would only have detectable negative effects in long-term experiments. Thus the effectiveness of a long-term assay was evaluated with the following assay protocol: […]

[3] = cited from earlier work
[4] = system: phospho-ERK; assay: stimulation of phospho-ERK in FGF2-starved hiPSC by media stored at 37° C. (Western blot); type: cell-based, human
Description: FIG. 7A-E. Qualification of B8 as Suitable for hiPSC Generation and Culture. […] (B) Expression of pluripotent markers in a variety of B8-derived hiPSC lines. (C) Example G-banding karyotype analysis of four hiPSC lines derived in B8 from blood. (D) hiPSC growth at low seeding densities in B8 compared to E8 (n=8). (E) Assessment of stimulation of phospho-ERK after media had been stored at 37° C. for 2 or 7 days, comparing in-house generated FGF2-G3 to a commercial FGF2 (Peprotech). hiPSC were starved of FGF2 for 24 h then treated with the indicated media for 1 h before collection for Western blot. Total ERK was used as a loading control.
Stock lysis buffer was prepared as 150 mM NaCl, 20 mM Tris pH 7.5, 1 mM EDTA, 1 mM EGTA, and 1% Triton X-100 and stored at 4° C. Fresh complete lysis buffer was prepared with final concentration of 1× Protease Inhibitor (Roche, 5892791001), 1× Phosphatase Inhibitor Cocktail 2 (P5726, Sigma), 1× Phosphatase Inhibitor Cocktail 3 (Sigma, P0044), 2 mM PMSF (Sigma, P7626), and 1% SDS Solution (Fisher Scientific, BP2436200). hiPSC were starved using B8 without FGF2 for 24 hours, then treated with media containing the corresponding FGF2 for 1 h. Media was then removed, and cells were washed once with DPBS, harvested with 0.5 mM EDTA in DPBS, and transferred into tubes. Samples were pelleted by centrifugation at 500×g for 3 minutes and the supernatant was discarded. The pellet was resuspend in 150 μl complete lysis buffer and incubated on ice for 30 min. Clear lysates were collected by centrifugation at 10,000×g for 10 min at 4° C. The protein concentration was measured with Qubit Protein Assay Kit (Invitrogen, Q33211) and Qubit 4 fluorometer. Lysates was stored in −80° C. before use. 10 μg of sample was prepared with NuPAGE™ LDS Sample Buffer (Invitrogen, B0007) and NuPAGE™ Reducing Agent (Invitrogen, B0009) according to the manufacturer's instructions and run on NuPAGE™ 10% Bis-Tris Gel (Invitrogen, NP0302BOX) and Mini Gel Tank system (Invitrogen, A25977) with Bolt MES SDS Running Buffer (Invitrogen, B000202) at 100 V for 1 h. […]

insulin: E. coli-derived recombinant human insulin (Gibco)
concentration up to which effect on growth was dose-dependent ([1]; FIG. 2A): up to 20 μg ml^−1
necessity of component for hiPSC growth [1]: essential
confirmed concentration in long-term assay [2]: 20 µg/mL

O=[Se](O)O [sodium selenite]
concentrations that did not significantly affect growth ([1]; FIG. 2D): 2 to 200 ng/mL
concentration confirmed / usable / required in long-term assay [2]: 20 ng/mL

O=C([O-])O.[Na+] [sodium bicarbonate]
optimal concentration for growth ([1]; FIG. 3E): 29 mM

O=C(NCc1ccccc1)c1csc(Nc2ccncn2)n1 [thiazovivin, reference compound]
effect on growth vs 10 μM Y27632 ([1]; 2 μM for the first 24 h after passage, FIG. 3B): marginally, though not significantly, improved growth

TGFβ1: recombinant human TGFβ1 (112 amino acid, HEK293-derived, Peprotech)
optimal / sufficient concentration for growth [1]: ≥ 0.5 ng/mL
concentration confirmed / usable / required in long-term assay [2]: 0.1 ng/mL
necessity of component for hiPSC culture [2]: essential

TGFβ3: 112 amino acid TGFβ3 (SEQ ID NO: 16) made in E. coli as thioredoxin fusion protein
potency relative to TGFβ1 ([3]; Huang et al., 2014): more potent than TGFβ1
concentration confirmed / usable / required in long-term assay [2]: 0.1 ng/mL

Transferrin: Oryza sativa-derived recombinant human transferrin (Optiferrin, InVitria)
concentration enhancing growth / giving optimal growth ([1]; FIG. 2B-C): 20 µg/mL
necessity of component for hiPSC growth [1]: not essential
confirmed concentration in long-term assay [2]: 20 µg/mL
necessity of component for hiPSC culture [2]: dispensable

O=C1O[C@H]([C@@H](O)CO)C(O)=C1OP(=O)(O)O.[Na+].[Na+].[Na+] [Ascorbic acid 2-phosphate, L-ascorbic acid 2-phosphate trisodium salt]
necessity of component for hiPSC growth [1]: not essential
confirmed concentration in long-term assay [2]: 200 µg/mL
necessity of component for hiPSC culture [2]: dispensable

FGF2-K128N: recombinant human FGF2 with K128N substitution, made in-house in E. coli (SEQ ID NO: 4/14)
concentrations showing a similar effect on growth rate ([1]; FIG. 3H): 100 ng/mL
optimal / sufficient concentration for growth [1]: ≥ 40 ng/mL

FGF2: fibroblast growth factor 2, human FGF2 (SEQ ID NO: 3)
necessity of component for hiPSC growth [1]: essential

commercial FGF2: a commercial FGF2 (Peprotech) [reference compound]
pERK stimulation after storage of media at 37° C. ([4]; 2 days at 37° C.): not capable of stimulating pERK

TGFβ1m: TGFβ1 with C77S point mutation, unable to form dimers, produced in E. coli
potency relative to TGFβ1 (fold less potent) ([3]; monomeric C77S protein, predicted (Kim et al., 2015)): ~20 fold

IGF1 LR3: recombinant human IGF1 LR3 (Sigma, 91590C)
level of IGF1 LR3 able to replace insulin ([1]; FIG. 2A, not cost-effective): ≥ 1 µg/mL

B1: NODAL: Activin/NODAL/TGFβ1 signaling source (protein, UniProt Q96S42 238-347, looked up)
Nodal homolog: HHLPDRSQLCRKVKFQVDFNLIGWGSWIIYPKQYNAYRCEGECPNPVGEEFHPTNHAYIQSLLKRYQPHRVPSTCCAPVKTKPLSMLYVDNGRVLLDHHKDMIVEECGCL
concentration confirmed / usable / required in long-term assay [2]: 100 ng/mL

B2: FGF2-G3: thermostable FGF2 with nine point mutations, made in-house in E. coli (SEQ ID NO: 15) (protein)
chain: AAGSITTLPALPEDGGSGAFPPGHFKDPKLLYCKNGGFFLRIHPDGRVDGTRDKSDPFIKLQLQAEERGVVSIKGVCANRYLAMKEDGRLYAIKNVTDECFFFERLEENNYNTYRSRKYPSWYVALKRTGQYKLGSKTGPGQKAILFLPMSAKS
concentrations showing a similar effect on growth rate ([1]; FIG. 3H): 5 ng/mL
relative potency on growth rate ([1]; FIG. 3H): more potent than FGF2-K128N
stability (pERK stimulation) after storage of media at 37° C. ([4]; 7 days at 37° C.): stable
concentration confirmed / usable / required in long-term assay [2]: 40 ng/mL

B3: NRG1: 65 amino acid truncated neuregulin 1 containing just the EGF domain (SEQ ID NO: 17) (protein)
chain: SHLVKCAEKEKTFCVNGGECFMVKDLSNPSRYLCKCPNEFTGDRCQNYVMASFYKHLGIEFMEAE
enhancement of growth over FGF2-G3 alone ([2]; all tested levels of NRG1 added to 40 ng ml−1 FGF2-G3): > 15%
necessity of component for hiPSC culture [2]: dispensable
support of growth in the absence of FGF2 ([2]; no FGF2): not able to support growth

B4: Activin A: Activin/NODAL/TGFβ1 signaling source (protein, UniProt P08476 311-426, looked up)
Inhibin beta A chain: GLECDGKVNICCKKQFFVSFKDIGWNDWIIAPSGYHANYCEGECPSHIAGTSGSSLSFHSTVINHYRMRGHSPFANLKSCCVPTKLRPMSMLYYDDGQNIIKKDIQNMIVEECGCS
modifications: Inhibin beta A chain
effect on growth in combination with TGFβ1 ([2]; FIG. 5I): negative effect on growth
suitability to maintain growth ([2]; alone, FIG. 5H): not suitable to maintain growth to the same level as TGFβ1
support of growth at very low doses ([2]; very low doses): could support growth, albeit to a lesser extent than TGFβ1
